These results are taken from patent US10004701B2, “Methods and compositions for treating infection” (UNIVERSITY OF ROCHESTER, priority 2012, dated 2018).

Structures can show the parent of a compound that is named as a salt. Where two headings read alike, the source gives them in different places.

Test in all cases: AK assay 384-well format, Prestwick library screening
One test concerns E. faecium. Type of test: cell-based, Enterococcus faecium. To be noted: 50 μM final drug concentration; for fold induction at 50 µM: Enterococcus faecium, 3 h.
Test [1] concerns S. aureus strain USA300-0114. Type of test: cell-based, Staphylococcus aureus. As to conditions: 50 μM final drug concentration; for fold induction at 50 µM: Staphylococcus aureus, USA300, 3 h.
The test system of a further test is K. pneumoniae. Type of test: cell-based, Klebsiella pneumoniae. To be noted: 50 μM final drug concentration; for fold induction at 50 µM: Klebsiella pneumoniae, 3 h.
Test [2] relates to A. baumannii strain 98-37-09. Type of test: cell-based, Acinetobacter baumannii. As to conditions: 50 μM final drug concentration; for fold induction at 50 µM: Acinetobacter baumannii, 983709, 3 h.
The next test concerns P. aeruginosa. Type of test: cell-based, Pseudomonas aeruginosa. To be noted: 50 μM final drug concentration; for fold induction at 50 µM: Pseudomonas aeruginosa, 3 h.
The subject of a further test is E. cloacae. Format: cell-based, Enterobacter cloacae. To be noted: 50 μM final drug concentration; for fold induction at 50 µM: Enterobacter cloacae, 3 h.
Another test relates to E. coli. Format: cell-based, Escherichia coli. As to conditions: 50 μM final drug concentration; for fold induction at 50 µM: Escherichia coli, 3 h.
The mark [3] stands for this setting: planktonic, cutoff for positive 3-fold increase.
Setting [4] is: planktonic E. faecium, 384-well, cutoff for positive-scoring molecules 3-fold increase, read-out: AK-based Prestwick Library Screening Results: E. faecium (increase in extracellular AK activity).
Where [5] appears, read: planktonic S. aureus, 384-well, cutoff for positive-scoring molecules 3-fold increase, read-out: AK-based Prestwick Library Screening Results: S. aureus (increase in extracellular AK activity).
The mark [6] stands for this setting: planktonic K. pneumoniae, 384-well, cutoff for positive-scoring molecules 3-fold increase, read-out: AK-based Prestwick Library Screening Results: K. pneumoniae (increase in extracellular AK activity).
Setting [7] is: planktonic A. baumannii, 384-well, cutoff for positive-scoring molecules 3-fold increase, read-out: AK-based Prestwick Library Screening Results: A. baumannii (increase in extracellular AK activity).
Setting [8] is: planktonic P. aeruginosa, 384-well, cutoff for positive-scoring molecules 3-fold increase, read-out: AK-based Prestwick Library Screening Results: P. aeruginosa (increase in extracellular AK activity).
Setting [9] is: planktonic E. cloacae, 384-well, cutoff for positive-scoring molecules 3-fold increase, read-out: AK-based Prestwick Library Screening Results: E. cloacae (increase in extracellular AK activity).
[10] abbreviates: planktonic E. coli, 384-well, cutoff for positive-scoring molecules 3-fold increase, read-out: AK-based Prestwick Library Screening Results: E. coli (increase in extracellular AK activity).
Where [11] appears, read: planktonic E. faecium, cutoff for positive-scoring molecules 3-fold increase, read-out: AK-based Prestwick Library Screening Results, E. faecium (increase in extracellular AK activity).
Setting [12] is: planktonic S. aureus, cutoff for positive-scoring molecules 3-fold increase, read-out: AK-based Prestwick Library Screening Results, S. aureus (increase in extracellular AK activity).
The mark [13] stands for this setting: planktonic K. pneumoniae, cutoff for positive-scoring molecules 3-fold increase, read-out: AK-based Prestwick Library Screening Results, K. pneumoniae (increase in extracellular AK activity).
Where [14] appears, read: planktonic A. baumannii, cutoff for positive-scoring molecules 3-fold increase, read-out: AK-based Prestwick Library Screening Results, A. baumannii (increase in extracellular AK activity).
The mark [15] stands for this setting: planktonic P. aeruginosa, cutoff for positive-scoring molecules 3-fold increase, read-out: AK-based Prestwick Library Screening Results, P. aeruginosa (increase in extracellular AK activity).
Setting [16] is: planktonic E. cloacae, cutoff for positive-scoring molecules 3-fold increase, read-out: AK-based Prestwick Library Screening Results, E. cloacae (increase in extracellular AK activity).
[17] abbreviates: planktonic E. coli, cutoff for positive-scoring molecules 3-fold increase, read-out: AK-based Prestwick Library Screening Results, E. coli (increase in extracellular AK activity).

Consider `C=C1c2c(Cl)ccc(O)c2C(=O)C2=C(O)[C@]3(O)C(=O)C(C(N)=O)=C(O)[C@@H](N(C)C)[C@@H]3[C@@H](O)[C@H]12.O=C(O)c1cc(S(=O)(=O)O)ccc1O` [Meclocycline sulfosalicylate], for which the “AK-based Prestwick Library Screening Results, E. faecium (fold increase in extracellular AK activity)” value with E. faecium (setting [3]) is reported as 1.0. Further, the “AK-based Prestwick Library Screening Results, S. aureus (fold increase in extracellular AK activity)” value in test [1] (setting [3]) turned out to be 4.3. Besides, the “AK-based Prestwick Library Screening Results, K. pneumoniae (fold increase in extracellular AK activity)” value in the test with K. pneumoniae (setting [3]) turned out to be 0.3. Further, in test [2] (setting [3]), the “AK-based Prestwick Library Screening Results, A. baumannii (fold increase in extracellular AK activity)” value is reported as 3.2. Moreover, in the test with P. aeruginosa (setting [3]), the “AK-based Prestwick Library Screening Results, P. aeruginosa (fold increase in extracellular AK activity)” value came to 0.5. In addition, the “AK-based Prestwick Library Screening Results, E. cloacae (fold increase in extracellular AK activity)” value in the test with E. cloacae (setting [3]) worked out at 2.1. For the same compound, the “AK-based Prestwick Library Screening Results, E. coli (fold increase in extracellular AK activity)” value in the test on E. coli (setting [3]) is reported as 0.8.

For the compound `COc1ccc2c(c1)[nH]c1c(C)nccc12` [Harmine hydrochloride], the fold induction at 50 µM came out at 1.1 with E. faecium (planktonic, […], read-out: AK-based Prestwick Library Screening Results, E. faecium (fold increase in extracellular AK activity)); 0.9 in test [1] (planktonic, […], read-out: AK-based Prestwick Library Screening Results, S. aureus (fold increase in extracellular AK activity)); 0.7 in the test with K. pneumoniae (planktonic, […], read-out: AK-based Prestwick Library Screening Results, K. pneumoniae (fold increase in extracellular AK activity)); 1 in test [2] (planktonic, […], read-out: AK-based Prestwick Library Screening Results, A. baumannii (fold increase in extracellular AK activity)); 1.2 with P. aeruginosa (planktonic, […], read-out: AK-based Prestwick Library Screening Results, P. aeruginosa (fold increase in extracellular AK activity)); 1.5 in the test on E. cloacae (planktonic, […], read-out: AK-based Prestwick Library Screening Results, E. cloacae (fold increase in extracellular AK activity)). Moreover, in the test on E. coli (planktonic, […], read-out: AK-based Prestwick Library Screening Results, E. coli (fold increase in extracellular AK activity)), the fold induction at 50 µM was 1.1.

Consider `Cc1cnc(C(=O)NCCc2ccc(S(=O)(=O)NC(=O)NC3CCCCC3)cc2)cn1` [Glipizide], for which the fold induction at 50 µM in the test with E. faecium (setting [4]) came to 0.9; in test [1] (setting [5]), 1.2; in the test on K. pneumoniae (setting [6]), 0.8; in test [2] (setting [7]), 1; with P. aeruginosa (setting [8]), 1; with E. cloacae (setting [9]) it was 1.3. For the same compound, in the test on E. coli (setting [10]), the fold induction at 50 µM amounted to 1.2.

On to `COC(=O)[C@@H]1[C@H]2C[C@H]3c4[nH]c5ccccc5c4CCN3C[C@@H]2CC[C@@H]1O` [Yohimbine hydrochloride], for which the fold induction at 50 µM in the test on E. faecium (setting [11]) is 0.9; in test [1] (setting [12]), 0.6; in the test with K. pneumoniae (setting [13]) it was 0.8; in test [2] (setting [14]) it was 0.8; in the test on P. aeruginosa (setting [15]), 0.9; with E. cloacae (setting [16]) it was 1. Also, in the test on E. coli (setting [17]), the fold induction at 50 µM was determined as 0.8.

Take `Cc1cc2nc3c(=O)[nH]c(=O)nc-3n(C[C@H](O)[C@H](O)[C@H](O)CO)c2cc1C` [Riboflavine]: the fold induction at 50 µM with E. faecium (planktonic, cutoff for positive 3-fold increase, read-out: AK-based Prestwick Library Screening Results, E. faecium (fold increase in extracellular AK activity)) was determined as 1; in test [1] (planktonic, cutoff for positive 3-fold increase, read-out: AK-based Prestwick Library Screening Results, S. aureus (fold increase in extracellular AK activity)) it was 0.9; with K. pneumoniae (planktonic, cutoff for positive 3-fold increase, read-out: AK-based Prestwick Library Screening Results, K. pneumoniae (fold increase in extracellular AK activity)) it was 1.6; in test [2] (planktonic, cutoff for positive 3-fold increase, read-out: AK-based Prestwick Library Screening Results, A. baumannii (fold increase in extracellular AK activity)), 1.2; in the test on P. aeruginosa (planktonic, cutoff for positive 3-fold increase, read-out: AK-based Prestwick Library Screening Results, P. aeruginosa (fold increase in extracellular AK activity)) it was 1.2; in the test on E. cloacae (planktonic, cutoff for positive 3-fold increase, read-out: AK-based Prestwick Library Screening Results, E. cloacae (fold increase in extracellular AK activity)) it was 1.5. For the same compound, the fold induction at 50 µM with E. coli (planktonic, cutoff for positive 3-fold increase, read-out: AK-based Prestwick Library Screening Results, E. coli (fold increase in extracellular AK activity)) is 1.1.

Take `CCN(CC)CCOC(=O)C(c1ccccc1)c1ccccc1` [Adiphenine hydrochloride]: the fold induction at 50 µM in the test with E. faecium (setting [4]) is 1; in test [1] (setting [5]), 1.3; with K. pneumoniae (setting [6]), 1; in test [2] (setting [7]), 1.3; in the test with P. aeruginosa (setting [8]) it was 0.9; with E. cloacae (setting [9]) it was 1.5. Moreover, in the test on E. coli (setting [10]), the fold induction at 50 µM worked out at 1.2.

In the case of `CO[C@@]1(NC(=O)CSCC#N)C(=O)N2C(C(=O)O)=C(CSc3nnnn3C)CS[C@@H]21` [Cefmetazole sodium salt], the fold induction at 50 µM stood at 1.4 in the test on E. faecium (cutoff for positive-scoring molecules 3-fold increase, read-out: AK-based Prestwick Library Screening Results, E. faecium (fold increase in extracellular AK activity)); 5 in test [1] (cutoff for positive-scoring molecules 3-fold increase, read-out: AK-based Prestwick Library Screening Results, S. aureus (fold increase in extracellular AK activity)); 4.6 with K. pneumoniae (cutoff for positive-scoring molecules 3-fold increase, read-out: AK-based Prestwick Library Screening Results, K. pneumoniae (fold increase in extracellular AK activity)); 1.4 in test [2] (cutoff for positive-scoring molecules 3-fold increase, read-out: AK-based Prestwick Library Screening Results, A. baumannii (fold increase in extracellular AK activity)); 1 in the test with P. aeruginosa (cutoff for positive-scoring molecules 3-fold increase, read-out: AK-based Prestwick Library Screening Results, P. aeruginosa (fold increase in extracellular AK activity)); 1.6 in the test on E. cloacae (cutoff for positive-scoring molecules 3-fold increase, read-out: AK-based Prestwick Library Screening Results, E. cloacae (fold increase in extracellular AK activity)). The fold induction at 50 µM with E. coli (cutoff for positive-scoring molecules 3-fold increase, read-out: AK-based Prestwick Library Screening Results, E. coli (fold increase in extracellular AK activity)) stood at 20.

For the compound `CN1CCN(C2=Nc3cc(Cl)ccc3Nc3ccccc32)CC1` [Clozapine], the fold induction at 50 µM was found to be 0.9 in the test on E. faecium (setting [11]); 0.7 in test [1] (setting [12]); 0.8 with K. pneumoniae (setting [13]); 0.9 in test [2] (setting [14]); 1 with P. aeruginosa (setting [15]); 1 in the test with E. cloacae (setting [16]). The fold induction at 50 µM in the test with E. coli (setting [17]) came out at 0.9.
